Reference: patent JP2014074001A, “抗精神病剤” (KONAN MEDICAL CO Ltd, priority 2012, dated 2014)

Experiments:
[1] = test system: fasting blood glucose [空腹時血糖値]; assay: Example 2: fasting blood glucose in high-fat-diet ICR mice, clozapine and β-glucan; assay type: in vivo, mouse; details: male ICR mice, 4 weeks, 16 h fast, tail vein, clozapine 5 mg/kg/day p.o. with or without β-glucan 5 v/v% in drinking water
[2] = test system: fasting blood glucose [空腹時血糖値]; assay: Example 1: fasting blood glucose in high-fat-diet ICR mice, olanzapine and β-glucan; assay type: in vivo, mouse; details: male ICR mice, 4 weeks, 16 h fast, tail vein, olanzapine 3 mg/kg/day p.o. and/or β-glucan 5 v/v% in drinking water, mean ± SD, high-fat control 84.4±14.65, normal diet control 72.6±10.49

Question: How did the fasting blood glucose [1] turn out when `CN1CCN(C2=Nc3cc(Cl)ccc3Nc3ccccc32)CC1` [クロザピン] was run?
Answer: Its fasting blood glucose is 124.0 ± 8.91 mg/dL.

Question: Which “fasting blood glucose, mean” value [2] does the source give for `Cc1cc2c(s1)Nc1ccccc1N=C2N1CCN(C)CC1` [オランザピン] here?
Answer: Its value is 124.8 ± 16.44 mg/dL.
